2 compounds from patent US20230322769A1, “HETEROAROMATIC RING COMPOUND AS RET KINASE INHIBITOR, AND PREPARATION AND USE THEREOF” (JIANGSU CHIA TAI FENGHAI PHARMACEUTICAL CO., LTD., priority 2020, published 2023) can be followed below.

Each structure is given as a SMILES string.

The target in one data set is RET wild type (RET WT) (Homo sapiens (Human), UniProt P07949). In words: HTRF kinase activity assay, RET wild type. In kind it is biochemical. The conditions noted are these: 1 μM ATP. (In TR-FRET formats the signal depends on donor and acceptor labels being close together.)
The target of the next data set is KDR (VEGFR2) (Homo sapiens (Human), UniProt P35968). Briefly: HTRF kinase activity assay, KDR. Type of data set: biochemical. The conditions noted are these: 20 μM ATP.
Sequence of KDR (VEGFR2) (P35968 20-1356): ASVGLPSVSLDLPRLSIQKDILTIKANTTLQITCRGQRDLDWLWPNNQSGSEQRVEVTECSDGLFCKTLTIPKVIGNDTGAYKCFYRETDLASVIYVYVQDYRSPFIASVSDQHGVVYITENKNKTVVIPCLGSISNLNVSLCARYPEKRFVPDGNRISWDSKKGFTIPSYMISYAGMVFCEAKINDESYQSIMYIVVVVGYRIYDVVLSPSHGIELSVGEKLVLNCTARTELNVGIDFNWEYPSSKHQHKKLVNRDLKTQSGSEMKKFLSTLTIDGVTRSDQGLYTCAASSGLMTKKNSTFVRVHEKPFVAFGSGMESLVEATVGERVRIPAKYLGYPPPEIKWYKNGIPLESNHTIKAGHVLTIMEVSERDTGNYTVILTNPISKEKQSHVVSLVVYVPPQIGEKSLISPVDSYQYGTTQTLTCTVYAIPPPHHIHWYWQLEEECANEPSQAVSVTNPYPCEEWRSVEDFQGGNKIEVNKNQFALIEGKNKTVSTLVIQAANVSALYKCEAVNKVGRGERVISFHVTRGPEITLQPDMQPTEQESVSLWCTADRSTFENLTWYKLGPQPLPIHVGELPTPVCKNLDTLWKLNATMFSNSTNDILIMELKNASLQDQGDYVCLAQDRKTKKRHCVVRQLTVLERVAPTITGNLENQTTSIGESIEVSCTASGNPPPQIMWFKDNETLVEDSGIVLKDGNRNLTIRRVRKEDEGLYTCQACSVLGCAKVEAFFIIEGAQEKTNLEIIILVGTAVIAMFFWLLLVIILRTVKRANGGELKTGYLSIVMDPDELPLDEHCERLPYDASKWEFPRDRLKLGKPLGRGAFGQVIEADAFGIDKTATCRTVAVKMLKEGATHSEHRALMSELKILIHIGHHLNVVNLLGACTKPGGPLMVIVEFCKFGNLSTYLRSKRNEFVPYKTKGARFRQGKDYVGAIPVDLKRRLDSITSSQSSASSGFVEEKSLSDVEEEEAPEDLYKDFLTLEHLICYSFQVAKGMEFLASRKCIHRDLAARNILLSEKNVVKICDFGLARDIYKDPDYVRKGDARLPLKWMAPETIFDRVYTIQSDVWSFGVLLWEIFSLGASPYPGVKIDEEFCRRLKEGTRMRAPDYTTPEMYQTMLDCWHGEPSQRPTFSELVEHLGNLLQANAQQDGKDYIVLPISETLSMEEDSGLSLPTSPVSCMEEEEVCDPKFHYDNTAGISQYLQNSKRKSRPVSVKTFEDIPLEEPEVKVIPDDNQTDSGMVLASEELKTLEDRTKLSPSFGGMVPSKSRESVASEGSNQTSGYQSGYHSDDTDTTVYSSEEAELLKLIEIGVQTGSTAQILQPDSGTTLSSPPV
The next data set relates to Ba/F3 KIF5B-RET cells. Briefly: Ba/F3 KIF5B-RET cell inhibition (CellTiter-Glo). Type of data set: cell-based. The settings on record: Mus musculus, BaF3, 72 h. On the procedure:
(§1) Activity Experiment 3: Inhibition of Ba/F3 KIF5B-RET Cells by Prepared Compounds Ba/F3 KIF5B-RET, Ba/F3KIF5B-RET-V804M, Ba/F3 RET-M918T and Ba/F3 KIF5B-RET-G810R cells growing in log phase were harvested and counted using a […]. The cell viability was determined by the trypan blue exclusion method, and the cell viability was kept over 90%. The cell concentration was adjusted, and 90 μL of the cell suspension was added to a 96-well plate. The cells in the 96-well plate were incubated overnight at 37° C. with 5% CO2 and 95% humidity. Corresponding gradient concentrations of drug solutions (the maximum concentration was 1000 nM) were added to the 96-well plate inoculated with cells at 10 μL/well. Triplicate wells were set per drug concentration, and the final concentration of DMSO was 0.1%. The drug-treated cells in the 96-well plate were incubated for another 72 h at 37° C. with 5% CO2 and 95% humidity. After the drug treatment was completed, 100 μL of CellTiter-Glo reagent was added to each well. The cell plate was shaken on an orbital shaker for 5 min to lyse the cells and then let stand at room temperature for 20 min to stabilize the luminescence signals, and then the luminescence values were read. The data were analyzed using the GraphPad Prism 5.0 software. Dose-response curves were fit to the data using nonlinear S-curve regression, and IC50 was calculated from the curves.
Background: ATP-based viability assays read luminescence as a measure of living cells.

The test system of a further data set is Ba/F3 RET-M918T cells. In words: Ba/F3 RET-M918T cell inhibition (CellTiter-Glo). In kind it is cell-based. The settings on record: Mus musculus, BaF3, 72 h. On the procedure: as §1
A short description of data set [1]: Pharmacokinetic assay in rats. The conditions noted are these: for CL / Vz / F / AUC(0-inf) / AUC(0-t) / Cmax / Tmax / clearance / half-life / Vd: SD male rats; for F: p.o. 5 mg/kg vs i.v. 1 mg/kg; for AUC(0-inf) / AUC(0-t) / Cmax / Tmax / clearance / half-life / Vd: rat, plasma; for Vd: read-out: Vz. In kind it is in vivo, rat.
A further data set deals with FGFR2 K641R (Homo sapiens (Human), UniProt P21802, K641R). In words: HTRF kinase activity assay, FGFR2 K641R. In kind it is biochemical. The procedure:
Activity Experiment 8: Inhibition of FGFR Family Kinases' Activity by Prepared Compounds The compounds were assayed for activity IC50 against the FGFR family kinases. Related kinases were purchased from Carna and Signalchem. The activity assay method for the related kinases was established by homogeneous time-resolved fluorescence (HTRF), and the inhibitory activity of the compounds was determined. […] The kinases and compounds were pre-incubated for 10 min, and then ATP and substrate were added to start the reaction. All the enzyme-catalyzed reactions were carried out at 25° C. for 40 min. After the enzyme-catalyzed reactions were completed, 5 μL of TK antibody-cryptate and streptavidin-XL665 (the reaction concentration of streptavidin-XL665 was 62.5 nM) were added to the reaction mixtures, and the mixtures were incubated at 25° C. for another 60 min.

The target in the next data set is FGFR4 (Homo sapiens (Human), UniProt P22455). Briefly: HTRF kinase activity assay, FGFR4. In kind it is biochemical. On the procedure:
Activity Experiment 8: Inhibition of FGFR Family Kinases' Activity by Prepared Compounds The compounds were assayed for activity IC50 against the FGFR family kinases. Related kinases were purchased from Carna and Signalchem.
The activity assay method for the related kinases was established by homogeneous time-resolved fluorescence (HTRF), and the inhibitory activity of the compounds was determined. A 5 μL reaction mixture was prepared, comprising 1× enzymatic buffer (Cisbio, HTRF KinEASE™-TK), 5 mM MgCl2, 1 mM DTT, 1 μM TK substrate-biotin (Cisbio, HTRF KinEASE™-TK), corresponding concentrations of ATP and related kinases, and gradient concentrations of compounds.
The kinases and compounds were pre-incubated for 10 min, and then ATP and substrate were added to start the reaction. All the enzyme-catalyzed reactions were carried out at 25° C. for 40 min. After the enzyme-catalyzed reactions were completed, 5 μL of TK antibody-cryptate and streptavidin-XL665 (the reaction concentration of streptavidin-XL665 was 62.5 nM) were added to the reaction mixtures, and the mixtures were incubated at 25° C. for another 60 min.

Another data set concerns the target hERG potassium channel (Homo sapiens (Human), UniProt Q12809). In words: Inhibition of hERG potassium channel, whole-cell patch clamp in HEK293 cells. The settings on record: read-out: IC50 for inhibition of hERG potassium channel; HEK293 cells stably expressing hERG, patch clamp. (In general: Block of hERG is tested as a sign of cardiac risk.)

Sequence of FGFR2 K641R (P21802 22-821 K641R): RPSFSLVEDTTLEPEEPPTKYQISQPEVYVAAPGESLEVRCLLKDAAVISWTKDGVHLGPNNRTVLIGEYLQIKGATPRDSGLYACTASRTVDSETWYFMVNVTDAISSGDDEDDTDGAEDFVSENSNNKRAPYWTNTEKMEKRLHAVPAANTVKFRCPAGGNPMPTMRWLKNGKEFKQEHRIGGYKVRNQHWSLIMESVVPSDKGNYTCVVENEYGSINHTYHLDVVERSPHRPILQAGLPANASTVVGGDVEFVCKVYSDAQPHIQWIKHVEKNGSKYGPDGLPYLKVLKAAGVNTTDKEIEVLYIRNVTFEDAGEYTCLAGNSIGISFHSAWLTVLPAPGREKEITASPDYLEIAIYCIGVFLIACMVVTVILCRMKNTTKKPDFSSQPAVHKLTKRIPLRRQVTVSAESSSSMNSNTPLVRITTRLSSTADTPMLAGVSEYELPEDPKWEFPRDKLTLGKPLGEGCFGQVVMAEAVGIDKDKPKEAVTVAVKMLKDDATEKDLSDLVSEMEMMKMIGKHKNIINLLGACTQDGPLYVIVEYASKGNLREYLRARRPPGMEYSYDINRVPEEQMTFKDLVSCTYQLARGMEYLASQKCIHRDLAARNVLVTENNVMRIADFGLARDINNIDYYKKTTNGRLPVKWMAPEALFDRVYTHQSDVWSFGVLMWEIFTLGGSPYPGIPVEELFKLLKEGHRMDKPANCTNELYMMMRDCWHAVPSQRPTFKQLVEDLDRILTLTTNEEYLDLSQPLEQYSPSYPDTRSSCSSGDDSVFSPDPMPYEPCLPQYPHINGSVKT
Sequence of FGFR4 (P22455 22-802): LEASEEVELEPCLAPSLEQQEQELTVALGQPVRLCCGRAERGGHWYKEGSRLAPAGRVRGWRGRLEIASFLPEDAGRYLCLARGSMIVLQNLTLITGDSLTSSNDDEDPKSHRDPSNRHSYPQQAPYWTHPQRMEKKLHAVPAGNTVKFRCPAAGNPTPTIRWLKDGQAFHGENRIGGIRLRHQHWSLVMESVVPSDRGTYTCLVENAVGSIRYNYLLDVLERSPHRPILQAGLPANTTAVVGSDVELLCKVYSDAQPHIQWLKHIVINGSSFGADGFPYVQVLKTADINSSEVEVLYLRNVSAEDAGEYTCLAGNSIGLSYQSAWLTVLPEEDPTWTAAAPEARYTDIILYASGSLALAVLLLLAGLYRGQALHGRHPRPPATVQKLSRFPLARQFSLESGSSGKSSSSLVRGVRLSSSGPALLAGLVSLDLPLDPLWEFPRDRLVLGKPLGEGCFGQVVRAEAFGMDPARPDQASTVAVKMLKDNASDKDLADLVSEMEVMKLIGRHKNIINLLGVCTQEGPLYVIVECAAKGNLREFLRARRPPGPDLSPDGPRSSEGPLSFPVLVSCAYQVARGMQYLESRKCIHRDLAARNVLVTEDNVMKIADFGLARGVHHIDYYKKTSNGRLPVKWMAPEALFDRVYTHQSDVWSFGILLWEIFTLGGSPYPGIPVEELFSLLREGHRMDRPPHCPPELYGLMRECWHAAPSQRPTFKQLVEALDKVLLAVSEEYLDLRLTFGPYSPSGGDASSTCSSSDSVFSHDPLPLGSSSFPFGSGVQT
Sequence of hERG potassium channel (Q12809 whole entry): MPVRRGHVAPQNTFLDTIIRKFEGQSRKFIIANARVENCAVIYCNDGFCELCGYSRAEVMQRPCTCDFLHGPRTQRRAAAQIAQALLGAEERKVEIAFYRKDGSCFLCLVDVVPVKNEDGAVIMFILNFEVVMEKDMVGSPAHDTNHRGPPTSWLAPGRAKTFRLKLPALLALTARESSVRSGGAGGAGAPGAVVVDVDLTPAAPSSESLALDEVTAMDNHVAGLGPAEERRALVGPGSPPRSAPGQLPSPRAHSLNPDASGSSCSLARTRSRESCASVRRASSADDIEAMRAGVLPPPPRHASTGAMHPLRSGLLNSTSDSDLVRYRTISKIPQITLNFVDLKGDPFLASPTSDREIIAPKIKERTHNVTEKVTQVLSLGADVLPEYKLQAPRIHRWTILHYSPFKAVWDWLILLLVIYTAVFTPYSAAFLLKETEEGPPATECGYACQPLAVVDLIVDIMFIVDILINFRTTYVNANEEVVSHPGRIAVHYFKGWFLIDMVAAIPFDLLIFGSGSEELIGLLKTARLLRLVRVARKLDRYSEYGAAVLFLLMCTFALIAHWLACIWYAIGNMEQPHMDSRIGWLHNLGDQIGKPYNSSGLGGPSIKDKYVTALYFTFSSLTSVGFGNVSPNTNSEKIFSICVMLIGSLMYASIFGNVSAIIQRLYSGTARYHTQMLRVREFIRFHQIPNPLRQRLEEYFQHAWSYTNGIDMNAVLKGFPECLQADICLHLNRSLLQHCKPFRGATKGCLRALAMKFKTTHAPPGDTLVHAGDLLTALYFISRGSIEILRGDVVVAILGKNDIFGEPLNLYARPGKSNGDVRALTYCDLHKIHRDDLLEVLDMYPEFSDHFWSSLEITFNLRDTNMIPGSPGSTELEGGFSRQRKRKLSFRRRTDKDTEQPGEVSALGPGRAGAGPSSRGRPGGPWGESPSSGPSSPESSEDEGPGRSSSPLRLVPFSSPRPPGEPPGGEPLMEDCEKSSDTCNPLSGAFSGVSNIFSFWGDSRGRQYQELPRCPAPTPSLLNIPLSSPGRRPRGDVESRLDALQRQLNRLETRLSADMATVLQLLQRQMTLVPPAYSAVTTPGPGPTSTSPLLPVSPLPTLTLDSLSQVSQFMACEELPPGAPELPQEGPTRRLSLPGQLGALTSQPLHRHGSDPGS

A word on the IC50: it is the concentration that inhibits the measured activity by half. Usually AUC(0-inf) stands for total exposure, with the tail of the curve extrapolated. In general, AUC(0-t) refers to exposure summed from dosing to a finite time, without extrapolation to infinity. In general, Cmax refers to the highest concentration seen after dosing. Usually Tmax stands for the time at which the peak concentration occurs. In general, clearance refers to a measure of how efficiently the substance is removed, as volume per time. The low end stands for a low capacity for elimination, the high end for a high capacity for elimination. Broadly, the half-life is how long it takes for the measured level to halve. Read a high half-life as slow loss. Regarding `[2H]C([2H])([2H])N1CCN(c2cc(-c3ccc(N4CC5CC(C4)N5Cc4ccc(OC)nc4)nc3)c3c(C#N)cnn3c2)CC1` [Compound 94], the IC50 on RET wild type (RET WT) was 4.62 nM. Moreover, the IC50 against KDR (VEGFR2) came out at 169 nM. This compound showed an IC50 with Ba/F3 KIF5B-RET cells of 19.8 nM. In addition, the IC50 with Ba/F3 RET-M918T cells is 17.1 nM. In data set [1] (p.o. 5 mg/kg), the CL is 59.4597 mL/min/kg and the Vz was determined as 68.49214 L/kg. In addition, the F in data set [1] was determined as 98.02%. In addition, the “Clearance time in rats compared with Loxo-292” value in data set [1] (after oral administration) is “took longer to be cleared”. The “Bioavailability compared with Loxo-292” value in data set [1] (after oral administration, rats) is recorded as “higher bioavailability”. Further, in data set [1] (iv, i.v. 1 mg/kg), the total exposure AUC(0-inf) was 335 ng·h/mL, the AUC(0-t) was 240 ng·h/mL, the concentration peaked (Cmax) at 42.3 ng/mL and the Tmax stood at 0.08 h. Besides, in data set [1] (iv, i.v. 1 mg/kg), the clearance is 51.2 mL/min/kg, the half-life is 13.3 h and the Vd was 57.6 L/kg. Moreover, in data set [1] (po, p.o. 5 mg/kg), the AUC(0-inf) is 1640 ng·h/mL, the AUC(0-t) was found to be 1020 ng·h/mL, the Cmax came out at 63.9 ng/mL and the Tmax turned out to be 4 h. In addition, the half-life in data set [1] (po, p.o. 5 mg/kg) is 15.8 h. Moreover, on FGFR2 K641R, the concentration for half-maximal inhibition (IC50) was 7.39 nM. Also, the IC50 on FGFR4 is 595 nM.

`COc1ccc(CN2C3CC2CN(c2ccc(-c4cc(OCC(C)(C)O)cn5ncc(C#N)c45)cn2)C3)cn1` [Selpercatinib, selpercatinib, reference compound] registered an IC50 in the data set on Ba/F3 KIF5B-RET cells of 8.34 nM. In the data set on Ba/F3 RET-M918T cells, the IC50 was determined as 20.4 nM. For the same compound, in data set [1] (p.o. 5 mg/kg), the CL amounted to 7.6 mL/min/kg and the Vz was 2.039 L/kg. The compound further registered a F in data set [1] of 66.07%. Further, in data set [1] (iv, i.v. 1 mg/kg), the AUC(0-inf) stood at 3330 ng·h/mL, the AUC(0-t) came out at 3310 ng·h/mL, the concentration peaked (Cmax) at 1260 ng/mL and the Tmax stood at 0.083 h. For the same compound, in data set [1] (iv, i.v. 1 mg/kg), the clearance was 5.1 mL/min/kg and the Vd was 1.61 L/kg. In addition, in data set [1] (po, p.o. 5 mg/kg), the AUC(0-inf) came to 11000 ng·h/mL, the exposure AUC(0-t) turned out to be 10900 ng·h/mL, the concentration peaked (Cmax) at 1040 ng/mL and the Tmax stood at 2.67 h. The compound also gave a half-life in data set [1] (po, p.o. 5 mg/kg) of 3.11 h. Besides, at FGFR2 K641R, 11.2 nM corresponded to half-maximal inhibition (IC50). Besides, the 50% inhibitory concentration (IC50) against FGFR4 was determined as 475 nM. Besides, on hERG potassium channel, the half-maximal inhibitory concentration (IC50) is 2750 nM.
